# According to patent US20050261264A1, “Rare-earth ternary complex” (priority 2000, published 2005):
# Assays:
# Assay type in all cases: physicochemical
# [1] = Miscibility with solvents, visual evaluation at 5 wt %; parameters: key: ⊚: dissolves at room temperature; ◯: dissolves when heated for 5 minutes at 40° C.; Δ: dissolves under heating, but cooling precipitates crystals; X: does not dissolve; settings: complex added at 5 wt %
# Protocol: (§1) The miscibility of the rare earth complex with various media was evaluated as follows.
# 1) Miscibility with Solvents
# [2] = Number of moles of bound water per mole of complex (TG-DTA); settings: for Bound water (number of moles of bound water per mole of complex): Table 1, dried samples for the ternary complexes
# Protocol: The number of moles of bound water per mole of complex was measured using a TG-DTA 2000 from MAC Science.
# A 20 g quantity of Eu(PMS)3 was added to 100 mL of isopropanol, then 43 g ([…] the molar amount of the Eu(PMS)3) of triphenylphosphine oxide (hereinafter referred to as TPPO) was added, and the system was refluxed for 3 hours, and then gradually cooled. The resulting white powder was filtered off. The white powder thus obtained was washed with hot n-hexane, and recrystallized with water-methanol to obtain 44 g of Eu(PMS)3(TPPO)8 in the form of white acicular crystals (yield: 85%). The TG-DTA was measured for these crystals, and it was found from the weight reduction at 100° C. that the number of moles of bound water per mole of complex was 2.93. The IR, NMR, UV absorption characteristics, and elemental analysis results for the obtained Eu(PMS)3(TPPO)8(H2O)2.93 are given below.
# Eu(PMS)3(TPPO)8(H2O)2.93 obtained by the above synthesis method was dried in vacuo for 3 hours at 140° C. and a reduced pressure of […]. TG-DTA measurement for the resulting white powder was carried out to obtain a weight reduction at 100° C. It was found from the obtained value that the number of moles of bound water per mole of complex was 0.18.
# [3] = Miscibility with a polymer matrix, visual evaluation; parameters: key to Miscibility, PMMA: ⊚: dissolves up to 30 wt %; ◯: dissolves up to 5 wt %; Δ: disperses up to 5 wt %, but there is turbidity; X: repelled at the polymer surface
# Protocol: as §1
# 2) Miscibility with a Polymer Matrix
# The rare earth complex serving as the sample was added in the concentrations listed with the evaluation criteria below relative to various media, and the miscibility was visually evaluated according to the following criteria. • ⊚: dissolves up to 30 wt % • ◯: dissolves up to 5 wt % • Δ: disperses up to 5 wt %, but there is turbidity • X: repelled at the polymer surface
# [4] = after drying in vacuo at 140° C.
SMILES,"Miscibility, Acetone [1]","Miscibility, Chloroform [1]","Miscibility, Toluene [1]","Miscibility, Water [1]",Bound water (number of moles of bound water per mole of complex) [2],"Number of moles of bound water per mole of complex [2, 4]","Number of moles of bound water per mole of complex ([2]; before drying (crystals as obtained), weight reduction at 100° C.)","Miscibility, Epoxy resin [3]","Miscibility, Nafion [3]","Miscibility, PMMA [3]"
O=P(c1ccccc1)(c1ccccc1)c1ccccc1.O=P(c1ccccc1)(c1ccccc1)c1ccccc1.O=P(c1ccccc1)(c1ccccc1)c1ccccc1.O=P(c1ccccc1)(c1ccccc1)c1ccccc1.O=P(c1ccccc1)(c1ccccc1)c1ccccc1.O=P(c1ccccc1)(c1ccccc1)c1ccccc1.O=P(c1ccccc1)(c1ccccc1)c1ccccc1.O=P(c1ccccc1)(c1ccccc1)c1ccccc1.O=S(=O)([N-]S(=O)(=O)C(F)(F)F)C(F)(F)F.O=S(=O)([N-]S(=O)(=O)C(F)(F)F)C(F)(F)F.O=S(=O)([N-]S(=O)(=O)C(F)(F)F)C(F)(F)F.[Yb+3] [Yb(PMS)3(TPPO)8],⊚,⊚,◯,X,0.27,0.27,1.52,◯ (dissolves up to 5 wt %),◯ (dissolves up to 5 wt %),◯ (dissolves up to 5 wt %)
O=P(c1ccccc1)(c1ccccc1)c1ccccc1.O=P(c1ccccc1)(c1ccccc1)c1ccccc1.O=P(c1ccccc1)(c1ccccc1)c1ccccc1.O=P(c1ccccc1)(c1ccccc1)c1ccccc1.O=P(c1ccccc1)(c1ccccc1)c1ccccc1.O=P(c1ccccc1)(c1ccccc1)c1ccccc1.O=P(c1ccccc1)(c1ccccc1)c1ccccc1.O=P(c1ccccc1)(c1ccccc1)c1ccccc1.O=S(=O)([N-]S(=O)(=O)C(F)(F)C(F)(F)F)C(F)(F)C(F)(F)F.O=S(=O)([N-]S(=O)(=O)C(F)(F)C(F)(F)F)C(F)(F)C(F)(F)F.O=S(=O)([N-]S(=O)(=O)C(F)(F)C(F)(F)F)C(F)(F)C(F)(F)F.[Eu+3] [Eu(PES)3(TPPO)8],⊚,⊚,◯,X,0.19,0.19,,◯ (dissolves up to 5 wt %),◯ (dissolves up to 5 wt %),◯ (dissolves up to 5 wt %)
O=S(=O)([N-]S(=O)(=O)C(F)(F)F)C(F)(F)F.O=S(=O)([N-]S(=O)(=O)C(F)(F)F)C(F)(F)F.O=S(=O)([N-]S(=O)(=O)C(F)(F)F)C(F)(F)F.[Nd+3].c1cnc2c(c1)ccc1cccnc12.c1cnc2c(c1)ccc1cccnc12.c1cnc2c(c1)ccc1cccnc12.c1cnc2c(c1)ccc1cccnc12 [Nd(PMS)3(Phen)m],⊚,Δ,Δ,X,0.00,,,◯ (dissolves up to 5 wt %),◯ (dissolves up to 5 wt %),◯ (dissolves up to 5 wt %)
O=S(=O)([N-]S(=O)(=O)C(F)(F)F)C(F)(F)F.O=S(=O)([N-]S(=O)(=O)C(F)(F)F)C(F)(F)F.O=S(=O)([N-]S(=O)(=O)C(F)(F)F)C(F)(F)F.O=S(c1ccccc1)c1ccccc1.O=S(c1ccccc1)c1ccccc1.O=S(c1ccccc1)c1ccccc1.O=S(c1ccccc1)c1ccccc1.O=S(c1ccccc1)c1ccccc1.O=S(c1ccccc1)c1ccccc1.O=S(c1ccccc1)c1ccccc1.O=S(c1ccccc1)c1ccccc1.[Tb+3] [Tb(PMS)3(DPSO)8],⊚,◯,◯,X,0.00,,,◯ (dissolves up to 5 wt %),◯ (dissolves up to 5 wt %),◯ (dissolves up to 5 wt %)
"O=C(C=C([O-])C(F)(F)F)C(F)(F)F.O=C(C=C([O-])C(F)(F)F)C(F)(F)F.O=C(C=C([O-])C(F)(F)F)C(F)(F)F.[Nd+3] [Nd(HFA)3, reference compound]",⊚,X,X,X,2.00,,,◯ (dissolves up to 5 wt %),"Δ (disperses up to 5 wt %, but there is turbidity)",X
